Key:
human CRF receptor = biological target: T1, human CRF receptor (Homo sapiens, UniProt P34998); experiment: Corticotropin-releasing factor (CRF) receptor binding experiment with 125I-CRF; details: human CRF receptor expressing CHO cellular membrane fraction; for IC50: 125I-CRF, GraphPad Prism; for inhibition at 1 µM: 1000 nM test compound, 50 pM 125I-CRF, read-out: Binding inhibitory rate (%) 1000 nM
T1 construct: expressed in transfected cells; host or cells: CHO cells (membrane fraction)
T1 sequence (P34998 24-415): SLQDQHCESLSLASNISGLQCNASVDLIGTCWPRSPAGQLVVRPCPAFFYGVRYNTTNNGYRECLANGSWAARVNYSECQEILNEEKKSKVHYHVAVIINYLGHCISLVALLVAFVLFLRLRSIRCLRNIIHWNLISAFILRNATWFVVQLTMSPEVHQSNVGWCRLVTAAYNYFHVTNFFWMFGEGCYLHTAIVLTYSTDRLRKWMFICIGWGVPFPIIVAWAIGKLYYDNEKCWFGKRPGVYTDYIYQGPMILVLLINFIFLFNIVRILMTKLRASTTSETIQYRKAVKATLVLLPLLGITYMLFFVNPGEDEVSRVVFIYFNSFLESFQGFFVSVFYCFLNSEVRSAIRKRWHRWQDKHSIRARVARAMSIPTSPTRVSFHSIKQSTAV
Description: A receptor binding experiment was carried out using a human CRF receptor expressing CHO cellular membrane fraction and ovine CRF, [^125I]-tyr^0 (^125I-CRF). 1000 nM of a test compound was incubated with 1 μg of human CRF receptor expressing CHO cellular membrane fraction and 50 pM of ^125I-CRF in a binding assay buffer (50 mM Tris-HCl, 5 mM EDTA, 10 mM MgCl2, 0.05% CHAPS, 0.1% BSA, 0.5 mM PMSF, 0.1 μg/ml pepstatin, 20 μg/ml leupeptin, pH 7.5). In addition, for measuring nonspecific binding (NSB), 0.1 μM unlabelled human Urocortin was incubated with 1 μg of human CRF receptor expressing CHO cellular membrane fraction and 50 pM of ^125I-CRF in a binding assay buffer. After a binding reaction was carried out at room temperature for 1.5 hour, the membrane was entrapped on a glass filter (UniFilter plate GF-C/Perkin Elmer) by suction filtration using a cell harvester (Perkin Elmer), and washed with ice-cooled 50 mM Tris-HCl (pH 7.5). After drying the glass filter, a liquid scintillation cocktail (Microscinti 0, Perkin Elmer) was added, and the radioactivity of ^125I-CRF remaining on a glass filter was measured using Topcount (Perkin Elmer).
(TB−SB)/(TB−NSB)×100 (SB: radioactivity when a compound is added, TB: maximum binding radioactivity, NSB: nonspecific binding radioactivity) was calculated to obtain a binding inhibitory rate under the presence of 1,000 nM of each test substances. The IC50 values were calculated by using GraphPad Prism software.

SMILES | IC50 (human CRF receptor) | melting point | inhibition at 1 µM (human CRF receptor)
CCC(CC)c1ccc(OC)c2nc(Oc3c(C)cc(Cl)cc3Cl)n(C)c12 [Example 145, 2-(2,4-Dichloro-6-methylphenoxy)-7-(1-ethylpropyl)-4-methoxy-1-methyl-1H-benzimidazole] | < 10 nM | 130 to 131 °C | –
CCC(CC)c1ccc(Cl)c2nc(Nc3c(C)cc(Br)cc3OC)n(C)c12 [Example 77, N-(4-Bromo-2-methoxy-6-methylphenyl)-4-chloro-7-(1-ethylpropyl)-1-methyl-1H-benzimidazol-2-amine] | 10 to 50 nM | 218 to 220 °C | > 80%
CCC(CC)c1ccc(Cl)c2nc(Nc3ccc(Cl)cc3Br)n(C)c12 [Example 84, N-(2-Bromo-4-chlorophenyl)-4-chloro-7-(1-ethylpropyl)-1-methyl-1H-benzimidazol-2-amine] | – | 136 to 138 °C | > 80%

Source: patent US8163935B2, “Fused heterocyclic compounds” (Takeda Pharmaceutical Company Limited, priority 2005, dated 2012)
